Assay results from patent publication US7579356B2, “Thia-tetraazaacenaphthylene kinase inhibitors” (Janssen Pharmaceutica NV, priority 2005, dated 2009).

How the values were obtained:
Type in all cases: biochemical
[1] = molecular target: T1, Lyn kinase (human) (Homo sapiens, UniProt P07948); assay: Lyn Kinase Assay; conditions: test concentration of 2 μM
T1 construct: purchased Upstate Biotechnology, Lake Placid, N.Y
Experimental: A mixture of a 10× kinase buffer (500 mM MOPS at pH 7.5, 1 mM EGTA, 1 mM Sodium Vanadate, 1% β-mercaptoethanol and 100 mM Magnesium Acetate), ATP (5 μM final from a 10 mM stock), polyGluTyr (0.1 mg/mL final from a 1 mg/mL stock), γ-^33P ATP (10 μCl/μL stock) and water (for a total of 20 μL/well) was added to each well of a Streptavidin Flashplate.
Test compound in 100% DMSO (0.5 μL) was added to the appropriate wells. Diluted Lyn kinase (human)(Accession Number EMBL M16038) (Upstate Biotechnology, Lake Placid, N.Y.) (diluted in a buffer consisting of 50 mM Tris at pH 7.5, 0.1 mM EGTA, Sodium Vanadate (0.1 mM), β-mercaptoethanol (0.1%) and 1 mg/mL bovine serum albumin) (2.5 μL) was added to the wells to initiate the reactions.
The reaction plates were incubated at 30° C. for 40 min. The reaction was terminated by the addition of a 3% phosphoric acid solution (5 μL). The reaction product (10 μL) was spotted onto a P30 filtermat and washed for 5 minutes in phosphoric acid (75 mM). The wash sequence was repeated two more times, followed with one final wash in methanol. The plates were then dried, sealed and read on the TopCount scintillation counter after adding 30 μL scintillation fluid.
(§1) The Lyn inhibition values were derived according to the procedure described in Example 164 and are shown as percent in Table 3 at a test concentration of 2 μM. For those compounds with an IC50, the IC50 value in μM is shown in parentheses. For compounds with multiple test values, each value represents a separate assay result.

[2] = molecular target: T2, c-Src kinase (human) (Homo sapiens, UniProt P12931); assay: c-Src Kinase Assay; conditions: test concentration of 2 μM; multiple values are separate assay results
T2 construct: purchased Upstate Biotechnology, Lake Placid, N.Y
T2 sequence (P12931 whole entry): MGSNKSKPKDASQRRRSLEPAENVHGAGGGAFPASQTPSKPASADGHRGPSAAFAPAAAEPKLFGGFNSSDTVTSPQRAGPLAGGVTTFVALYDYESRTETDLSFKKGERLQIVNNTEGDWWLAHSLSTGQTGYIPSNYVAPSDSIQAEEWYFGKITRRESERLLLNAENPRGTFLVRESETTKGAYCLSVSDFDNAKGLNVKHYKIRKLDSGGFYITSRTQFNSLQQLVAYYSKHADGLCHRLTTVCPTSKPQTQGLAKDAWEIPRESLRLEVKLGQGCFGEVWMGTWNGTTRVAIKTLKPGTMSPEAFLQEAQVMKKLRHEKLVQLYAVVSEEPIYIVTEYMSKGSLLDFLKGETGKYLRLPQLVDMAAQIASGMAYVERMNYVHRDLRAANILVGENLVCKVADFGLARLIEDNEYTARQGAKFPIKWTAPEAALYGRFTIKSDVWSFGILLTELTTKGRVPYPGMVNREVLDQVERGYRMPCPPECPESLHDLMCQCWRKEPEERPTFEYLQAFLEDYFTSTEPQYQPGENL
Experimental: A mixture of a 10× kinase buffer (80 mM MOPS at pH 7.0, 2 mM EDTA and 100 mM Magnesium Chloride), ATP (5 μM final from a 10 mM stock), a Cdc2 peptide KVEKIGEGTYGVVYK (100 μM final from a 2.5 mM stock), γ-^33P ATP (10 μCl/μL stock) and water (for a total of 20 μL/well) was added to each well of a Streptavidin Flashplate.
Test compound in 100% DMSO (0.5 μL) was added to the appropriate wells. Diluted c-Src kinase (human) (Accession Number SWISS-PROT P12931) (Upstate Biotechnology, Lake Placid, N.Y.) (diluted in a buffer consisting of 20 mM MOPS at pH 7.0, 1 mM EDTA, β-mercaptoethanol (0.1%), Brij-35 (0.01%), glycerol (5%), and 1 mg/mL bovine serum albumin) (2.5 μL) was added to the wells to initiate the reactions. The reaction plates were incubated at 30° C. for 40 min. The reaction was terminated by the addition of a 3% phosphoric acid solution (5 μL). The reaction product (10 μL) was spotted onto a P30 filtermat and washed for 5 minutes in phosphoric acid (75 mM). The wash sequence was repeated two more times, followed with one final wash in methanol. The plates were then dried, sealed and read on the TopCount scintillation counter after adding 30 μL scintillation fluid.
as §1, with “c-Src” for “Lyn”, “using” for “according to”, “percent inhibition formula provided” for “procedure described”, “2” for “3”

[3] = molecular target: T3, EGFR (Homo sapiens, UniProt P00533); assay: EGFR Kinase Assay; conditions: for IC50: GST-EGFR, ATP 5 μM; for inhibition at 2 µM: test concentration of 2 μM, compounds without an IC50, read-out: EGFR inhibition in percent
T3 construct: The intracellular portion of EGFR started at nucleotide 2189 (corresponding to amino acid 667) and ended at the termination codon; made in house; host or cells: Sf9 insect cells (baculovirus)
T3 sequence (P00533 669-1210 limits assumed): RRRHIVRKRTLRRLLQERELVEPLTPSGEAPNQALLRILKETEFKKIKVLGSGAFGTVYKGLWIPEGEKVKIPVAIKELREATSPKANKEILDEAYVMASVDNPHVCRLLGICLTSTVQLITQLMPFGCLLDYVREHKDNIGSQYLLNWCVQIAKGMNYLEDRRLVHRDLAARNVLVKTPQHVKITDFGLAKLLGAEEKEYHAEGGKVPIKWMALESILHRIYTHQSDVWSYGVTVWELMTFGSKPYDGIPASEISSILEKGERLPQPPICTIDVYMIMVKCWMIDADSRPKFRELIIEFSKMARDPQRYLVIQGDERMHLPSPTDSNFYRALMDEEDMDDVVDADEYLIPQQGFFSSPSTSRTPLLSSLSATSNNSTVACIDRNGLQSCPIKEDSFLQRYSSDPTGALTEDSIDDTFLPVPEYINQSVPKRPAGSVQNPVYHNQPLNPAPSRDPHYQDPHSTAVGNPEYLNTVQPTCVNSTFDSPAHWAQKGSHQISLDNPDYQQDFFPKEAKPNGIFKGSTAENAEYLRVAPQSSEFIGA
In short: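 GST-fused human EGFR intracellular domain (from aa 667), Sf9-expressed, phosphorylated biotinylated polyGluTyr with 5 μM ATP plus γ-33P ATP in Tris pH 8.0, MgCl2, vanadate, 1 mM DTT, 1 h at 30 °C. Streptavidin Flashplate scintillation read; triplicate 16-point half-log series from 200 uM; IC50 from % inhibition vs log concentration, else % inhibition at 2 μM.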

[4] = molecular target: T4, HER-2 (Homo sapiens, UniProt P04626); assay: HER-2 Kinase Assay; conditions: for inhibition at 1 µM: test concentration of 1 μM; for IC50: value in parentheses
T4 construct: His6 with thrombin site (N); purchased Proqinase (Freiburg, Germany)
T4 sequence (P04626 679-1255): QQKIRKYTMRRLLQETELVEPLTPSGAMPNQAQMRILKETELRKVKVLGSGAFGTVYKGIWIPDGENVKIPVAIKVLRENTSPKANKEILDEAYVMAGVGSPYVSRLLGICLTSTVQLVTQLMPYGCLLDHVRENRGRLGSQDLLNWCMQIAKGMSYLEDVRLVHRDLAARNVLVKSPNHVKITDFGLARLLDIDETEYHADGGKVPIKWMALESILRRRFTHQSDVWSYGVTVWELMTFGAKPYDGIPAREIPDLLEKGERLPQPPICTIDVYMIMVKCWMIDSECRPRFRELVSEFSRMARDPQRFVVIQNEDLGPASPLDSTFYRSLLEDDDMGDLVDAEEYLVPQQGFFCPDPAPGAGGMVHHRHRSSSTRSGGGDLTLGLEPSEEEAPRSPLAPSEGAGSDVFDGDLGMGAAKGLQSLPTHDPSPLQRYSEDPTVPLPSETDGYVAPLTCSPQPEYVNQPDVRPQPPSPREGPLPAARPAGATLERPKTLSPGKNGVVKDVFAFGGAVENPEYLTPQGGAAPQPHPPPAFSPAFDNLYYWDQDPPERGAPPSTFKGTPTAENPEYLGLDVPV
In short: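 GST/HIS6-tagged HER-2 aa 679–1255 kinase with biotinylated polyGluTyr (1.5 ng/μL), 1 μM ATP plus γ-33P-ATP, Mg2+/Mn2+, DTT, Hepes pH 7.5; 1 h at 30 °C. Substrate phosphorylation captured on streptavidin scintillation plates after EDTA/PBS washes; values are % inhibition at 1 μM or IC50.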

T1 sequence (P07948 whole entry): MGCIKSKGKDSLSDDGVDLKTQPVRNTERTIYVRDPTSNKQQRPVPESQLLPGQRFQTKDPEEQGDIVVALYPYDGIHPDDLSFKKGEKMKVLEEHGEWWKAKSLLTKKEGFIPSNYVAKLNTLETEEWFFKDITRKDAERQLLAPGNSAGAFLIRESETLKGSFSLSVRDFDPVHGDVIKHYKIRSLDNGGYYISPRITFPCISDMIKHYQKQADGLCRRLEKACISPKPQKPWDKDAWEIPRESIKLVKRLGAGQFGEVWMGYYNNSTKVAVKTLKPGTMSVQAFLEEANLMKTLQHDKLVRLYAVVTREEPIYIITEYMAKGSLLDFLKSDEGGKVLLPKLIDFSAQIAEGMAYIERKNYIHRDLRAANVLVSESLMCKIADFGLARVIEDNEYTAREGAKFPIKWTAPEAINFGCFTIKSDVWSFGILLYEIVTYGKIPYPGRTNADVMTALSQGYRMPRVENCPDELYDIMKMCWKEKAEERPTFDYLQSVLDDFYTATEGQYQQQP

inhibition at 2 µM [1] | inhibition at 2 µM [2] | IC50 [3] | inhibition at 1 µM [4] | IC50 [4] | inhibition at 2 µM [3] | % Inhibition (Lyn) ([1]; 2 µM) | Structure (SMILES)
 | -9% | 0.027 µM | 60% | 0.915 µM |  |  | COc1ccc(NC(=O)c2sc3ncnc4c3c2NC(=O)N4c2ccc(Oc3ccccc3)cc2)cc1OC [Cpd 99, 4-oxo-5-(4-phenoxy-phenyl)-4,5-dihydro-3H-1-thia-3,5,6,8-tetraaza-acenaphthylene-2-carboxylic acid (3,4-dimethoxy-phenyl)-amide]
40% |  | 0.025 µM | 60% | 0.536 µM |  | 48.5% | O=C(Nc1ccc(CCN2CCCCC2)cc1)c1sc2ncnc3c2c1NC(=O)N3c1ccc(Oc2ccccc2)c(F)c1 [Cpd 114, 5-(3-fluoro-4-phenoxy-phenyl)-4-oxo-4,5-dihydro-3H-1-thia-3,5,6,8-tetraaza-acenaphthylene-2-carboxylic acid [4-(2-piperidin-1-yl-ethyl)-phenyl]-amide]
37% | 26% |  |  | ~100 µM |  |  | CC(C)(C)OC(=O)NCCCNC(=O)c1sc2ncnc3c2c1NC(=O)N3c1ccc2c(ccn2Cc2cccc(F)c2)c1 [Cpd 141, [3-({5-[1-(3-fluoro-benzyl)-1H-indol-5-yl]-4-oxo-4,5-dihydro-3H-1-thia-3,5,6,8-tetraaza-acenaphthylene-2-carbonyl}-amino)-propyl]-carbamic acid tert-butyl ester]
 |  | 0.053 µM |  | 0.058 µM |  |  | CC(C)(C)OC(=O)NC1CCN(Cc2ccc(NC(=O)c3sc4ncnc5c4c3NC(=O)N5c3ccc(Oc4ccccc4)cc3)cc2)CC1 [Cpd 258, [1-(4-{[4-oxo-5-(4-phenoxy-phenyl)-4,5-dihydro-3H-1-thia-3,5,6,8-tetraaza-acenaphthylene-2-carbonyl]-amino}-benzyl)-piperidin-4-yl]-carbamic acid tert-butyl ester]
 |  | 0.037 µM |  | 0.028 µM |  |  | CN(C)C1CCN(Cc2ccc(NC(=O)c3sc4ncnc5c4c3NC(=O)N5c3ccc(Oc4ccccc4)cc3)cc2)CC1 [Cpd 260, 4-oxo-5-(4-phenoxy-phenyl)-4,5-dihydro-3H-1-thia-3,5,6,8-tetraaza-acenaphthylene-2-carboxylic acid [4-(4-dimethylamino-piperidin-1-ylmethyl)-phenyl]-amide]

Further lines, the compound ahead of its results:

Structure (SMILES) | inhibition at 2 µM [1] | inhibition at 2 µM [2] | IC50 [3] | inhibition at 1 µM [4] | IC50 [4] | inhibition at 2 µM [3] | % Inhibition (Lyn) ([1]; 2 µM)
COc1ccc(-c2sc3ncnc4c3c2NC(=O)N4c2ccc(F)c(Cl)c2)cc1OC [Cpd 9, 5-(3-chloro-4-fluoro-phenyl)-2-(3,4-dimethoxy-phenyl)-3H,5H-1-thia-3,5,6,8-tetraaza-acenaphthylen-4-one] | -7% | 26% | 1.03 µM |  |  |  | 
O=C(Nc1ccc(CN2CCOCC2)cc1)c1sc2ncnc3c2c1NC(=O)N3c1ccc(F)cc1Cl [Cpd 16, 5-(2-chloro-4-fluoro-phenyl)-4-oxo-4,5-dihydro-3H-1-thia-3,5,6,8-tetraaza-acenaphthylene-2-carboxylic acid (4-morpholin-4-ylmethyl-phenyl)-amide] | 68% | 52% | 0.223 µM | 54% | 5.44 µM |  | 
COc1cc(NC(=O)c2sc3ncnc4c3c2NC(=O)N4c2cc(OC)c(OC)c(OC)c2Cl)ccc1OCC1CCCCO1 (centres unmarked) [Cpd 30, 5-(2-chloro-3,4,5-trimethoxy-phenyl)-4-oxo-4,5-dihydro-3H-1-thia-3,5,6,8-tetraaza-acenaphthylene-2-carboxylic acid [3-methoxy-4-(tetrahydro-pyran-2-ylmethoxy)-phenyl]-amide] | -6% | 1% | 19.2 µM | 19% |  |  | 
CN1CCN(Cc2ccc(NC(=O)c3sc4ncnc5c4c3NC(=O)N5c3ccc(Br)cc3F)cc2)CC1 [Cpd 70, 5-(4-bromo-2-fluoro-phenyl)-4-oxo-4,5-dihydro-3H-1-thia-3,5,6,8-tetraaza-acenaphthylene-2-carboxylic acid [4-(4-methyl-piperazin-1-ylmethyl)-phenyl]-amide] |  | 43% | 0.33 µM |  | 1.02 µM |  | 
O=C(Nc1ccc(NCCCN2CCOCC2)nc1)c1sc2ncnc3c2c1NC(=O)N3c1ccc(Br)cc1F [Cpd 71, 5-(4-bromo-2-fluoro-phenyl)-4-oxo-4,5-dihydro-3H-1-thia-3,5,6,8-tetraaza-acenaphthylene-2-carboxylic acid [6-(3-morpholin-4-yl-propylamino)-pyridin-3-yl]-amide] |  | 44% | 0.85 µM |  | 1.76 µM |  | 
COc1ccc(NC(=O)c2sc3ncnc4c3c2NC(=O)N4c2cc(Cl)ccc2OC)cc1OC [Cpd 73, 5-(5-chloro-2-methoxy-phenyl)-4-oxo-4,5-dihydro-3H-1-thia-3,5,6,8-tetraaza-acenaphthylene-2-carboxylic acid (3,4-dimethoxy-phenyl)-amide] |  | -17% |  | -14% |  | 51% | 
Cc1ccc(-n2nc(C(C)(C)C)cc2N2C(=O)Nc3c(C(=O)Nc4ccc(CN5CCOCC5)cc4)sc4ncnc2c34)cc1 [Cpd 76, 5-(5-tert-butyl-2-p-tolyl-2H-pyrazol-3-yl)-4-oxo-4,5-dihydro-3H-1-thia-3,5,6,8-tetraaza-acenaphthylene-2-carboxylic acid (4-morpholin-4-ylmethyl-phenyl)-amide] |  | 43% |  | -11% |  | 7% | 
COc1cc(N2C(=O)Nc3c(C(=O)Nc4ccc(OC)c(OC)c4)sc4ncnc2c34)ccc1Br [Cpd 82, 5-(4-bromo-3-methoxy-phenyl)-4-oxo-4,5-dihydro-3H-1-thia-3,5,6,8-tetraaza-acenaphthylene-2-carboxylic acid (3,4-dimethoxy-phenyl)-amide] |  | 43% |  |  | > 10 µM | 30% | 
COc1cc(N2C(=O)Nc3c(C(=O)N(C)C)sc4ncnc2c34)ccc1Br [Cpd 83, 5-(4-bromo-3-methoxy-phenyl)-4-oxo-4,5-dihydro-3H-1-thia-3,5,6,8-tetraaza-acenaphthylene-2-carboxylic acid dimethylamide] |  | 44% |  |  | > 10 µM | -2% | 
COc1cc(N2C(=O)Nc3c(C(=O)Nc4ccc(CN5CCN(C)CC5)cc4)sc4ncnc2c34)ccc1Br [Cpd 85, 5-(4-bromo-3-methoxy-phenyl)-4-oxo-4,5-dihydro-3H-1-thia-3,5,6,8-tetraaza-acenaphthylene-2-carboxylic acid [4-(4-methyl-piperazin-1-ylmethyl)-phenyl]-amide] |  | -17% |  |  | 4.38 µM | 36% | 
COc1ccc(Cl)c(N2C(=O)Nc3c(C(=O)Nc4ccc(OCCN5CCCCC5)c(OC)c4)sc4ncnc2c34)c1 [Cpd 88, 5-(2-chloro-5-methoxy-phenyl)-4-oxo-4,5-dihydro-3H-1-thia-3,5,6,8-tetraaza-acenaphthylene-2-carboxylic acid [3-methoxy-4-(2-piperidin-1-yl-ethoxy)-phenyl]-amide] |  | 43% |  |  |  |  | 
